Reference: the supplement of paper PMC10883282
± gives the standard deviation of the averaged measurements.

Legend:
Experiment in all cases: relative viability vs DMSO control (72 h) (fraction); higher = more viable cells
SW872 = test system: SW872
Summary of the method: (§1)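 Serially diluted compound, 2.5 µl from source plates spanning 10 mM to 0.0002 mM, was added 24 h after sarcoma cell lines were seeded in 384-well plates at densities targeting 80–90% confluence. Plates then sat 72 h at 37 °C, 5% CO2, with 0.1% DMSO vehicle and a 5 µM positive control. Relative viability came from ATPLite as percent growth, averaged over up to triplicate wells, and was rescaled with 1 as full and 0 as none.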

A204 = test system: A204
Summary of the method: as §1

SYO-1 = test system: SYO-1
Summary of the method: as §1

SK-ES-1 = test system: SK-ES-1
Summary of the method: as §1

SW982 = test system: SW982
Summary of the method: as §1

HS729 = test system: HS729
Summary of the method: as §1

KHOS-240S = test system: KHOS-240S
Summary of the method: as §1

SW1353 = test system: SW1353
Summary of the method: as §1

G401 = test system: G401
Summary of the method: as §1

SW684 = test system: SW684
Summary of the method: as §1

MES-SA = test system: MES-SA
Summary of the method: as §1

SK-LMS-1 = test system: SK-LMS-1
Summary of the method: as §1

In the case of `CCCCCCCCCCCCCCCCCCOP(=O)([O-])OC1CC[N+](C)(C)CC1` [Perifosine], the relative viability (SW872; 0.00017 µM) is reported as 1.07 ± 0.025, the relative viability (SW872; 0.00051 µM) is reported as 1.1 ± 0.016 and the relative viability (SW872; 0.00152 µM) is reported as 1.05 ± 0.019. It also gave a relative viability (SW872; 0.00457 µM) of 1.03 ± 0.017, a relative viability (SW872; 0.01372 µM) of 0.986 ± 0.078 and a relative viability (SW872; 0.04115 µM) of 1.05 ± 0.055. It also gave a relative viability (SW872; 0.1235 µM) of 1.04 ± 0.077, a relative viability (SW872; 0.3704 µM) of 0.982 ± 0.028 and a relative viability (SW872; 1.111 µM) of 0.891 ± 0.033. For the same compound, the relative viability (SW872; 3.333 µM) was 0.629 ± 0.035, the relative viability (SW872; 10 µM) was 0.519 ± 0.032 and the relative viability (A204; 0.00017 µM) was 1.05 ± 0.051. It also gave a relative viability (A204; 0.00051 µM) of 1.08 ± 0.022, a relative viability (A204; 0.00152 µM) of 1.07 ± 0.08 and a relative viability (A204; 0.00457 µM) of 1.07 ± 0.032. It also gave a relative viability (A204; 0.01372 µM) of 1.06 ± 0.069, a relative viability (A204; 0.04115 µM) of 1.07 ± 0.061 and a relative viability (A204; 0.1235 µM) of 1.08 ± 0.067. The relative viability (A204; 0.3704 µM) was 1.06 ± 0.087, the relative viability (A204; 1.111 µM) was 1.03 ± 0.087 and the relative viability (A204; 3.333 µM) was 1.06 ± 0.086. The relative viability (A204; 10 µM) was 1.08 ± 0.096, the relative viability (SYO-1; 0.00017 µM) was 1.01 ± 0.026 and the relative viability (SYO-1; 0.00051 µM) was 1.012 ± 0.01. For the same compound, the relative viability (SYO-1; 0.00152 µM) was 0.99 ± 0.033, the relative viability (SYO-1; 0.00457 µM) was 1.01 ± 0.046 and the relative viability (SYO-1; 0.01372 µM) was 0.977 ± 0.06. For the same compound, the relative viability (SYO-1; 0.04115 µM) was 0.965 ± 0.084, the relative viability (SYO-1; 0.1235 µM) was 0.97 ± 0.056 and the relative viability (SYO-1; 0.3704 µM) was 0.946 ± 0.051. The relative viability (SYO-1; 1.111 µM) was 0.941 ± 0.057, the relative viability (SYO-1; 3.333 µM) was 0.903 ± 0.042 and the relative viability (SYO-1; 10 µM) was 0.901 ± 0.059. The relative viability (SK-ES-1; 0.00017 µM) was 1.08 ± 0.056, the relative viability (SK-ES-1; 0.00051 µM) was 1.06 ± 0.021 and the relative viability (SK-ES-1; 0.00152 µM) was 1.07 ± 0.013. The relative viability (SK-ES-1; 0.00457 µM) was 1.02 ± 0.013, the relative viability (SK-ES-1; 0.01372 µM) was 0.975 ± 0.013 and the relative viability (SK-ES-1; 0.04115 µM) was 0.951 ± 0.033. It also gave a relative viability (SK-ES-1; 0.1235 µM) of 1.05 ± 0.04, a relative viability (SK-ES-1; 0.3704 µM) of 0.996 ± 0.015 and a relative viability (SK-ES-1; 1.111 µM) of 1.05 ± 0.029. The relative viability (SK-ES-1; 3.333 µM) was 1.02 ± 0.024, the relative viability (SK-ES-1; 10 µM) was 1.01 ± 0.041 and the relative viability (SW982; 0.00017 µM) was 1.02 ± 0.022. For the same compound, the relative viability (SW982; 0.00051 µM) was 1.04 ± 0.031, the relative viability (SW982; 0.00152 µM) was 1.06 ± 0.018 and the relative viability (SW982; 0.00457 µM) was 1.08 ± 0.018. It also gave a relative viability (SW982; 0.01372 µM) of 1.1 ± 0.017, a relative viability (SW982; 0.04115 µM) of 1.08 ± 0.034 and a relative viability (SW982; 0.1235 µM) of 1.1 ± 0.036. For the same compound, the relative viability (SW982; 0.3704 µM) was 1.08 ± 0.033, the relative viability (SW982; 1.111 µM) was 1.06 ± 0.035 and the relative viability (SW982; 3.333 µM) was 1.06 ± 0.047. It also gave a relative viability (SW982; 10 µM) of 0.88 ± 0.026, a relative viability (HS729; 0.00017 µM) of 1.06 ± 0.04 and a relative viability (HS729; 0.00051 µM) of 0.9606 ± 0.0037. It also gave a relative viability (HS729; 0.00152 µM) of 1.01 ± 0.037, a relative viability (HS729; 0.00457 µM) of 1.02 ± 0.037 and a relative viability (HS729; 0.01372 µM) of 0.924 ± 0.043. It also gave a relative viability (HS729; 0.04115 µM) of 0.931 ± 0.05, a relative viability (HS729; 0.1235 µM) of 0.987 ± 0.026 and a relative viability (HS729; 0.3704 µM) of 0.909 ± 0.051. For the same compound, the relative viability (HS729; 1.111 µM) was 0.902 ± 0.014, the relative viability (HS729; 3.333 µM) was 0.904 ± 0.042 and the relative viability (HS729; 10 µM) was 0.913 ± 0.026. It also gave a relative viability (KHOS-240S; 0.00017 µM) of 1.09 ± 0.029, a relative viability (KHOS-240S; 0.00051 µM) of 1.1 ± 0.051 and a relative viability (KHOS-240S; 0.00152 µM) of 1.11 ± 0.049. The relative viability (KHOS-240S; 0.00457 µM) was 1.1 ± 0.033, the relative viability (KHOS-240S; 0.01372 µM) was 1.1 ± 0.059 and the relative viability (KHOS-240S; 0.04115 µM) was 1.09 ± 0.04. It also gave a relative viability (KHOS-240S; 0.1235 µM) of 1.09 ± 0.026, a relative viability (KHOS-240S; 0.3704 µM) of 1.08 ± 0.029 and a relative viability (KHOS-240S; 1.111 µM) of 1.09 ± 0.061. The relative viability (KHOS-240S; 3.333 µM) was 1.04 ± 0.033, the relative viability (KHOS-240S; 10 µM) was 0.818 ± 0.04 and the relative viability (SW1353; 0.00017 µM) was 1.11 ± 0.012. It also gave a relative viability (SW1353; 0.00051 µM) of 1.1 ± 0.043, a relative viability (SW1353; 0.00152 µM) of 1.09 ± 0.022 and a relative viability (SW1353; 0.00457 µM) of 1.08 ± 0.035. The relative viability (SW1353; 0.01372 µM) was 1.04 ± 0.022, the relative viability (SW1353; 0.04115 µM) was 1.04 ± 0.036 and the relative viability (SW1353; 0.1235 µM) was 1.05 ± 0.033. For the same compound, the relative viability (SW1353; 0.3704 µM) was 1.07 ± 0.025, the relative viability (SW1353; 1.111 µM) was 1.03 ± 0.025 and the relative viability (SW1353; 3.333 µM) was 1.02 ± 0.022. It also gave a relative viability (SW1353; 10 µM) of 1.06 ± 0.038, a relative viability (G401; 0.00017 µM) of 1.057 ± 0.0047 and a relative viability (G401; 0.00051 µM) of 1.06 ± 0.011. The relative viability (G401; 0.00152 µM) was 1.07 ± 0.0054, the relative viability (G401; 0.00457 µM) was 1.07 ± 0.018 and the relative viability (G401; 0.01372 µM) was 1.06 ± 0.034. The relative viability (G401; 0.04115 µM) was 1.059 ± 0.0094, the relative viability (G401; 0.1235 µM) was 1.064 ± 0.0048 and the relative viability (G401; 0.3704 µM) was 1.06 ± 0.019. For the same compound, the relative viability (G401; 1.111 µM) was 1.05 ± 0.028, the relative viability (G401; 3.333 µM) was 1.03 ± 0.011 and the relative viability (G401; 10 µM) was 1.06 ± 0.023. For the same compound, the relative viability (SW684; 0.00017 µM) was 1.08 ± 0.03, the relative viability (SW684; 0.00051 µM) was 1.16 ± 0.045 and the relative viability (SW684; 0.00152 µM) was 1.19 ± 0.046. For the same compound, the relative viability (SW684; 0.00457 µM) was 1.14 ± 0.062, the relative viability (SW684; 0.01372 µM) was 1.15 ± 0.018 and the relative viability (SW684; 0.04115 µM) was 1.18 ± 0.071. The relative viability (SW684; 0.1235 µM) was 1.18 ± 0.055, the relative viability (SW684; 0.3704 µM) was 1.21 ± 0.079 and the relative viability (SW684; 1.111 µM) was 1.24 ± 0.055. It also gave a relative viability (SW684; 3.333 µM) of 1.16 ± 0.1, a relative viability (SW684; 10 µM) of 1.12 ± 0.056 and a relative viability (MES-SA; 0.00017 µM) of 0.987 ± 0.012. The relative viability (MES-SA; 0.00051 µM) was 0.982 ± 0.021, the relative viability (MES-SA; 0.00152 µM) was 0.998 ± 0.015 and the relative viability (MES-SA; 0.00457 µM) was 0.974 ± 0.022. The relative viability (MES-SA; 0.01372 µM) was 0.96 ± 0.016, the relative viability (MES-SA; 0.04115 µM) was 0.922 ± 0.012 and the relative viability (MES-SA; 0.1235 µM) was 0.953 ± 0.021. It also gave a relative viability (MES-SA; 0.3704 µM) of 0.936 ± 0.03, a relative viability (MES-SA; 1.111 µM) of 0.855 ± 0.043 and a relative viability (MES-SA; 3.333 µM) of 0.918 ± 0.031. For the same compound, the relative viability (MES-SA; 10 µM) was 0.781 ± 0.032, the relative viability (SK-LMS-1; 0.00017 µM) was 1.01 ± 0.024 and the relative viability (SK-LMS-1; 0.00051 µM) was 1.05 ± 0.018. The relative viability (SK-LMS-1; 0.00152 µM) was 1.02 ± 0.051, the relative viability (SK-LMS-1; 0.00457 µM) was 1.06 ± 0.026 and the relative viability (SK-LMS-1; 0.01372 µM) was 1.01 ± 0.037. For the same compound, the relative viability (SK-LMS-1; 0.04115 µM) was 0.994 ± 0.046, the relative viability (SK-LMS-1; 0.1235 µM) was 1.02 ± 0.035 and the relative viability (SK-LMS-1; 0.3704 µM) was 1.01 ± 0.055. The relative viability (SK-LMS-1; 1.111 µM) was 0.848 ± 0.15, the relative viability (SK-LMS-1; 3.333 µM) was 0.836 ± 0.096 and the relative viability (SK-LMS-1; 10 µM) was 0.68 ± 0.031.
